In patent US20110240014A1, “SUBSTRATES FOR DRUG DELIVERY DEVICE AND METHODS OF PREPARING AND USE” (ALEXZA PHARMACEUTICALS, INC., priority 2003, published 2011):
Entries after “also recorded” stand apart in the source; their conditions may differ. Blank lines part the entries; values can stand above or below the molecule they belong to.

How the values were obtained:
[1] = Vaporization of bumetanide film from heat-treated, nitric acid-treated and non-treated 304 stainless steel foil; aerosol purity, yield and recovery by HPLC; conditions: for mass recovered from the filter / percent yield (recovered from the filter) / total mass recovered from the filter, test apparatus and substrate / Purity of the drug aerosol particles: coating 1.4 μm, 0.77 mg applied; for Purity of the drug aerosol particles: peak about 320° C.
[2] = Vaporization of eletriptan film from heat-treated and non-treated 304 stainless steel foil; aerosol purity, yield and recovery by HPLC; type: physicochemical; conditions: for mass recovered from the filter / percent yield (recovered from the filter) / total mass recovered from the filter, test apparatus and substrate / Purity of the drug aerosol particles: film thickness 4.2 μm, 2.26 mg applied; for Purity of the drug aerosol particles: peak about 450° C.
[3] = Vaporization of budesonide film from clean and treated steel foils 304, T-430 and zirconium oxide coated 304; aerosol purity, yield and recovery by HPLC; type: physicochemical; conditions: in all cases (all foils of Example 5)
Source text: Generation of budesonide aerosol from clean and treated steel foils 304 and T-430. […] All foils were dip-coated with a budesonide solution in dichloromethane.

[4] = Vaporization of flunisolide film from stainless steel foil substrates (304, T-430, zirconium oxide coated 304); aerosol purity, yield and recovery by HPLC; conditions: for Purity of the drug aerosol particles: peak about 350° C.
[5] = acid-treated (nitric acid) substrate
[6] = 0.5 μm coating on the heat-treated substrate
[7] = 1.5 μm coating on the non-treated substrate
[8] = heat-treated substrate 304, film thickness 0.5 μm, 0.253 mg applied
[9] = heat-treated substrate 304, film thickness 1.5 μm, 0.443 mg applied
[10] = non-treated substrate 304, film thickness 0.9 μm, 0.485 mg applied
[11] = non-treated substrate T-430, film thickness 1.3 μm, 0.68 mg applied
[12] = substrate 304 (treatment not stated), film thickness 1.2 μm, 0.65 mg applied
[13] = zirconium oxide coated substrate 304, film thickness 0.8 μm, 0.44 mg applied

mass recovered from the filter [1, 5]: 0.41 mg
percent yield (recovered from the filter) [1, 5]: 53%
total mass recovered from the filter, test apparatus and substrate [1, 5]: 0.42 mg
Purity of the drug aerosol particles [1, 5]: 98.3%
Purity of the drug aerosol particles ([1]; heat-treated substrate (350° C., 6 hours)): 99.3%
mass recovered from the filter ([1]; heat-treated substrate): 0.40 mg
percent yield (recovered from the filter) ([1]; heat-treated substrate): 52%
total mass recovered from the filter, test apparatus and substrate ([1]; heat-treated substrate): 0.41 mg
quantity of drug remaining on the foil after vaporization ([1]; in all cases (all foils of Example 4)): less than 5 % of the loaded dose
mass recovered from the filter ([1]; non-treated substrate): 0.37 mg
percent yield (recovered from the filter) ([1]; non-treated substrate): 48%
total mass recovered from the filter, test apparatus and substrate ([1]; non-treated substrate): 0.37 mg
Purity of the drug aerosol particles ([1]; non-treated substrate): 97.9%
Compound: CCCCNc1cc(C(=O)O)cc(S(N)(=O)=O)c1Oc1ccccc1 [bumetanide]

mass recovered from the filter ([2]; heat-treated 304 substrate): 1.78 mg
percent yield (recovered from the filter) ([2]; heat-treated 304 substrate): 78.9%
total mass recovered from the filter, test apparatus and substrate ([2]; heat-treated 304 substrate): 1.79 mg
Purity of the drug aerosol particles ([2]; heat-treated 304 substrate): 95.6%
change of aerosol purity (in words) ([2]; heat-treated versus non-treated foils, films between 4.0 and 9.5 μm (FIG. 8)): increase
quantity of drug remaining on the foil after vaporization ([2]; in all cases (all foils of Example 2)): less than 15 % of the loaded dose
mass recovered from the filter ([2]; non-treated 304 substrate): 1.647 mg
percent yield (recovered from the filter) ([2]; non-treated 304 substrate): 72.9%
total mass recovered from the filter, test apparatus and substrate ([2]; non-treated 304 substrate): 1.65 mg
Purity of the drug aerosol particles ([2]; non-treated 304 substrate): 92.8%
Compound: CN1CCC[C@@H]1Cc1c[nH]c2ccc(CCS(=O)(=O)c3ccccc3)cc12 [eletriptan]

quantity of drug remaining on the foil after vaporization [3]: less than 5 % of the loaded dose
Compound: CCCC1O[C@@H]2C[C@H]3[C@@H]4CCC5=CC(=O)C=C[C@]5(C)[C@H]4[C@@H](O)C[C@]3(C)[C@]2(C(=O)CO)O1 (some centres unmarked) [budesonide]

aerosol particles yielded [4, 6]: about 0.3 mg
coated dose emitted from the test apparatus [4, 6]: 97%-100
aerosol particles yielded [4, 7]: 0.2 mg
coated dose emitted from the test apparatus [4, 7]: about 25%
purity of thermal vapor ([4]; heat-treated 304 substrate, film thickness about 0.2 μm (FIG. 6)): about 93%
change of aerosol purity (in words) ([4]; heat-treated T-430 foils versus non-treated T-430): no marked improvement
mass recovered from the filter [4, 8]: 0.253 mg
percent yield (recovered from the filter) [4, 8]: 100%
total mass recovered from the test apparatus and substrate [4, 8]: 0.253 mg
Purity of the drug aerosol particles [4, 8]: 94.4%
mass recovered from the filter [4, 9]: 0.255 mg
percent yield (recovered from the filter) [4, 9]: 57.5%
total mass recovered from the test apparatus and substrate [4, 9]: 0.265 mg
Purity of the drug aerosol particles [4, 9]: 76.5%
purity of thermal vapor ([4]; heat-treated substrate, film thickness about 0.2 or 0.5 μm): about 93%
purity of thermal vapor ([4]; heat-treated substrate, film thickness about 2.6 μm): 83%
quantity of drug remaining on the foil after vaporization ([4]; in all cases (all foils of Example 1)): less than 15 % of the loaded dose
purity of thermal vapor ([4]; non-treated 304 substrate, film thickness about 0.2 μm (FIG. 6)): about 50%
mass recovered from the filter [4, 10]: 0.206 mg
percent yield (recovered from the filter) [4, 10]: 42.4%
total mass recovered from the test apparatus and substrate [4, 10]: 0.210 mg
Purity of the drug aerosol particles [4, 10]: 36.3%
mass recovered from the filter [4, 11]: 0.47 mg
percent yield (recovered from the filter) [4, 11]: 69.1%
total mass recovered from the test apparatus and substrate [4, 11]: 0.51 mg
Purity of the drug aerosol particles [4, 11]: 82.8%
purity of thermal vapor ([4]; non-treated substrate, film thickness about 1.5 μm): 38%
mass recovered from the filter [4, 12]: 0.161 mg
percent yield (recovered from the filter) [4, 12]: 24.7%
total mass recovered from the test apparatus and substrate [4, 12]: 0.172 mg
Purity of the drug aerosol particles [4, 12]: 30.2%
mass recovered from the filter [4, 13]: 0.246 mg
percent yield (recovered from the filter) [4, 13]: 55.9%
total mass recovered from the test apparatus and substrate [4, 13]: 0.31 mg
Purity of the drug aerosol particles [4, 13]: 90.0%
Compound: CC1(C)O[C@@H]2C[C@H]3[C@@H]4C[C@H](F)C5=CC(=O)C=C[C@]5(C)[C@H]4[C@@H](O)C[C@]3(C)[C@]2(C(=O)CO)O1 [flunisolide]
vapor purity (in words) ([4]; clean, non-treated T-430 steel foil, compared with non-treated 304 (FIG. 7)): good vapor purities; also recorded: improved purities; also recorded: very good purities
change of aerosol purity (in words) ([4]; heat-treated versus non-treated 304 substrates, films 0.2 μm to 2.6 μm (FIG. 6)): marked improvement; also recorded: marked increase
vapor purity (in words) ([4]; zirconium oxide coated 304 steel foil, without heat treatment (FIG. 7)): good aerosol purities; also recorded: improved purities; also recorded: very good vapor purities
